# Test results taken from article PMC2950902 (Molecular Microbiology, 2010).
# Columns and labels:
# P1 ParA [1] = molecular target: T1, P1 ParA (Escherichia coli, UniProt P07620); test: MANT-nucleotide fluorescence; format: binding; conditions: unlabelled ADP
# T1 sequence (P07620 1-398): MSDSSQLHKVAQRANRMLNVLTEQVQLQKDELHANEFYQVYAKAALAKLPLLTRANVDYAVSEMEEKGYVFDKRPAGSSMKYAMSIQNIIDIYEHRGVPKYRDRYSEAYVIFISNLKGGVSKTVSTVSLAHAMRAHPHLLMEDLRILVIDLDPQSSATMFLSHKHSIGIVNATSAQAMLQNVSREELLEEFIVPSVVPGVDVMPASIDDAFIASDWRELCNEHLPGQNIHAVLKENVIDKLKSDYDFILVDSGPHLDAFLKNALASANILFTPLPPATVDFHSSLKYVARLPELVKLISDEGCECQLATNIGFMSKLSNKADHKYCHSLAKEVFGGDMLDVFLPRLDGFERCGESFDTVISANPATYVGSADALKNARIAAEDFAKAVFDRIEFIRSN
# P1 ParA [2] = molecular target: T1, P1 ParA; test: tryptophan fluorescence change; format: binding; conditions: 1 mM nucleotide, Mg2+, 23°C
Structure (SMILES),apparent Kd (P1 ParA [1]),tryptophan fluorescence change (P1 ParA [2])
Nc1ncnc2c1ncn2[C@@H]1O[C@H](COP(=O)(O)OP(=O)(O)O)[C@@H](O)[C@H]1O [ADP],MANT-ADP bound ParA with similar affinity as ADP,
Nc1ncnc2c1ncn2[C@@H]1O[C@H](COP(=O)(O)OP(=O)(O)OP(O)(O)=S)[C@@H](O)[C@H]1O [ATPγS],,ADP and ATPγS induced a small but reproducible increase in fluorescence
